Measured values reported in patent publication US20170190671A1, “BIS(ARYL)CATECHOL DERIVATIVES AS HERBICIDES” (E I DU PONT DE NEMOURS AND COMPANY, priority 2014, published 2017).

How the values were obtained:
Assay in all cases: Test D preemergence
Assay type in all cases: in vivo
Conditions in all cases: scale 0 to 100
[1] = test system: winter wheat (Triticum aestivum)
Outline: (§1)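 Assessment is visual, relative to untreated controls, 14 to 21 days after application, with 100 meaning complete control. Seeds in silt loam receive preemergence spray; seedlings at the 1- to 4-leaf stage receive postemergence spray.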

[2] = test system: windgrass (Apera spica-venti)
Outline: as §1

[3] = test system: blackgrass (Alopecurus myosuroides)
Outline: as §1

[4] = test system: lambsquarters (Chenopodium album)
Outline: as §1

[5] = test system: wild buckwheat (Polygonum convolvulus)
Outline: as §1

[6] = test system: deadnettle (henbit deadnettle, Lamium amplexicaule)
Outline: as §1

[7] = test system: field violet (Viola arvensis)
Outline: as §1

[8] = test system: green foxtail (Setaria viridis)
Outline: as §1

[9] = test system: cutleaf geranium (Geranium dissectum)
Outline: as §1

[10] = test system: kochia (Kochia scoparia)
Outline: as §1

[11] = test system: wild radish (Raphanus raphanistrum)
Outline: as §1

[12] = test system: downy bromegrass (Bromus tectorum)
Outline: as §1

[13] = test system: oilseed rape (Brassica napus)
Outline: as §1

[14] = test system: wild mustard (Sinapis arvensis)
Outline: as §1

[15] = test system: winter barley (Hordeum vulgare)
Outline: as §1

[16] = test system: Italian ryegrass (Lolium multiflorum)
Outline: as §1

[17] = test system: speedwell (bird's-eye speedwell, Veronica persica)
Outline: as §1

SMILES: Fc1cnc(Oc2c(Br)cccc2Oc2ncc(Cl)cn2)nc1 [Compound 22]
- Plant response rating, Wheat, Winter ([1]; 16 g ai/ha): 0
- Plant response rating, Wheat, Winter ([1]; 31 g ai/ha): 0
- Plant response rating, Wheat, Winter ([1]; 62 g ai/ha): 5
- Plant response rating, Wheat, Winter ([1]; 125 g ai/ha): 40
- Plant response rating, Windgrass ([2]; 16 g ai/ha): 15
- Plant response rating, Windgrass ([2]; 31 g ai/ha): 20
- Plant response rating, Windgrass ([2]; 62 g ai/ha): 25
- Plant response rating, Windgrass ([2]; 125 g ai/ha): 70
- Plant response rating, Blackgrass ([3]; 16 g ai/ha): 5
- Plant response rating, Blackgrass ([3]; 31 g ai/ha): 20
- Plant response rating, Blackgrass ([3]; 62 g ai/ha): 35
- Plant response rating, Blackgrass ([3]; 125 g ai/ha): 55
- Plant response rating, Lambsquarters ([4]; 16 g ai/ha): 20
- Plant response rating, Lambsquarters ([4]; 31 g ai/ha): 85
- Plant response rating, Lambsquarters ([4]; 62 g ai/ha): 100
- Plant response rating, Lambsquarters ([4]; 125 g ai/ha): 100
- Plant response rating, Buckwheat, Wild ([5]; 16 g ai/ha): 10
- Plant response rating, Buckwheat, Wild ([5]; 31 g ai/ha): 10
- Plant response rating, Buckwheat, Wild ([5]; 62 g ai/ha): 15
- Plant response rating, Buckwheat, Wild ([5]; 125 g ai/ha): 85
- Plant response rating, Deadnettle ([6]; 16 g ai/ha): 20
- Plant response rating, Deadnettle ([6]; 31 g ai/ha): 60
- Plant response rating, Deadnettle ([6]; 62 g ai/ha): 85
- Plant response rating, Deadnettle ([6]; 125 g ai/ha): 100
- Plant response rating, Field Violet ([7]; 16 g ai/ha): 15
- Plant response rating, Field Violet ([7]; 31 g ai/ha): 75
- Plant response rating, Field Violet ([7]; 62 g ai/ha): 95
- Plant response rating, Field Violet ([7]; 125 g ai/ha): 95
- Plant response rating, Foxtail, Green ([8]; 16 g ai/ha): 15
- Plant response rating, Foxtail, Green ([8]; 31 g ai/ha): 35
- Plant response rating, Foxtail, Green ([8]; 62 g ai/ha): 40
- Plant response rating, Foxtail, Green ([8]; 125 g ai/ha): 40
- Plant response rating, Geranium, Cutleaf ([9]; 16 g ai/ha): 25
- Plant response rating, Geranium, Cutleaf ([9]; 31 g ai/ha): 35
- Plant response rating, Geranium, Cutleaf ([9]; 62 g ai/ha): 70
- Plant response rating, Geranium, Cutleaf ([9]; 125 g ai/ha): 100
- Plant response rating, Kochia ([10]; 16 g ai/ha): 0
- Plant response rating, Kochia ([10]; 31 g ai/ha): 10
- Plant response rating, Kochia ([10]; 62 g ai/ha): 20
- Plant response rating, Kochia ([10]; 125 g ai/ha): 70
- Plant response rating, Radish, Wild ([11]; 16 g ai/ha): 45
- Plant response rating, Radish, Wild ([11]; 31 g ai/ha): 55
- Plant response rating, Radish, Wild ([11]; 62 g ai/ha): 70
- Plant response rating, Radish, Wild ([11]; 125 g ai/ha): 80
- Plant response rating, Bromegrass, Downy ([12]; 16 g ai/ha): 15
- Plant response rating, Bromegrass, Downy ([12]; 31 g ai/ha): 25
- Plant response rating, Bromegrass, Downy ([12]; 62 g ai/ha): 30
- Plant response rating, Bromegrass, Downy ([12]; 125 g ai/ha): 35
- Plant response rating, Oilseed Rape ([13]; 16 g ai/ha): 30
- Plant response rating, Oilseed Rape ([13]; 31 g ai/ha): 40
- Plant response rating, Oilseed Rape ([13]; 62 g ai/ha): 70
- Plant response rating, Oilseed Rape ([13]; 125 g ai/ha): 90
- Plant response rating, Mustard, Wild ([14]; 16 g ai/ha): 20
- Plant response rating, Mustard, Wild ([14]; 31 g ai/ha): 30
- Plant response rating, Mustard, Wild ([14]; 62 g ai/ha): 100
- Plant response rating, Mustard, Wild ([14]; 125 g ai/ha): 100
- Plant response rating, Barley, Winter ([15]; 16 g ai/ha): 0
- Plant response rating, Barley, Winter ([15]; 31 g ai/ha): 0
- Plant response rating, Barley, Winter ([15]; 62 g ai/ha): 5
- Plant response rating, Barley, Winter ([15]; 125 g ai/ha): 40
- Plant response rating, Ryegrass, Italian ([16]; 16 g ai/ha): 10
- Plant response rating, Ryegrass, Italian ([16]; 31 g ai/ha): 15
- Plant response rating, Ryegrass, Italian ([16]; 62 g ai/ha): 25
- Plant response rating, Ryegrass, Italian ([16]; 125 g ai/ha): 65
- Plant response rating, Speedwell ([17]; 16 g ai/ha): 85
- Plant response rating, Speedwell ([17]; 31 g ai/ha): 90
- Plant response rating, Speedwell ([17]; 62 g ai/ha): 100
- Plant response rating, Speedwell ([17]; 125 g ai/ha): 100

SMILES: Fc1cnc(Oc2c(F)cccc2Oc2ncc(Cl)cn2)nc1 [Compound 23]
- Plant response rating, Wheat, Winter ([1]; 16 g ai/ha): 0
- Plant response rating, Wheat, Winter ([1]; 31 g ai/ha): 5
- Plant response rating, Wheat, Winter ([1]; 62 g ai/ha): 10
- Plant response rating, Wheat, Winter ([1]; 125 g ai/ha): 70
- Plant response rating, Windgrass ([2]; 16 g ai/ha): 20
- Plant response rating, Windgrass ([2]; 31 g ai/ha): 75
- Plant response rating, Windgrass ([2]; 62 g ai/ha): 98
- Plant response rating, Windgrass ([2]; 125 g ai/ha): 100
- Plant response rating, Blackgrass ([3]; 16 g ai/ha): 20
- Plant response rating, Blackgrass ([3]; 31 g ai/ha): 30
- Plant response rating, Blackgrass ([3]; 62 g ai/ha): 70
- Plant response rating, Blackgrass ([3]; 125 g ai/ha): 85
- Plant response rating, Lambsquarters ([4]; 16 g ai/ha): 25
- Plant response rating, Lambsquarters ([4]; 31 g ai/ha): 100
- Plant response rating, Lambsquarters ([4]; 62 g ai/ha): 100
- Plant response rating, Lambsquarters ([4]; 125 g ai/ha): 100
- Plant response rating, Buckwheat, Wild ([5]; 16 g ai/ha): 40
- Plant response rating, Buckwheat, Wild ([5]; 31 g ai/ha): 50
- Plant response rating, Buckwheat, Wild ([5]; 62 g ai/ha): 100
- Plant response rating, Buckwheat, Wild ([5]; 125 g ai/ha): 100
- Plant response rating, Deadnettle ([6]; 16 g ai/ha): 15
- Plant response rating, Deadnettle ([6]; 31 g ai/ha): 65
- Plant response rating, Deadnettle ([6]; 62 g ai/ha): 80
- Plant response rating, Deadnettle ([6]; 125 g ai/ha): 95
- Plant response rating, Field Violet ([7]; 16 g ai/ha): 25
- Plant response rating, Field Violet ([7]; 31 g ai/ha): 25
- Plant response rating, Field Violet ([7]; 62 g ai/ha): 95
- Plant response rating, Field Violet ([7]; 125 g ai/ha): 100
- Plant response rating, Foxtail, Green ([8]; 16 g ai/ha): 0
- Plant response rating, Foxtail, Green ([8]; 31 g ai/ha): 5
- Plant response rating, Foxtail, Green ([8]; 62 g ai/ha): 55
- Plant response rating, Foxtail, Green ([8]; 125 g ai/ha): 100
- Plant response rating, Geranium, Cutleaf ([9]; 16 g ai/ha): 25
- Plant response rating, Geranium, Cutleaf ([9]; 31 g ai/ha): 100
- Plant response rating, Geranium, Cutleaf ([9]; 62 g ai/ha): 100
- Plant response rating, Geranium, Cutleaf ([9]; 125 g ai/ha): 100
- Plant response rating, Kochia ([10]; 16 g ai/ha): 15
- Plant response rating, Kochia ([10]; 31 g ai/ha): 60
- Plant response rating, Kochia ([10]; 62 g ai/ha): 60
- Plant response rating, Kochia ([10]; 125 g ai/ha): 100
- Plant response rating, Radish, Wild ([11]; 16 g ai/ha): 25
- Plant response rating, Radish, Wild ([11]; 31 g ai/ha): 70
- Plant response rating, Radish, Wild ([11]; 62 g ai/ha): 90
- Plant response rating, Radish, Wild ([11]; 125 g ai/ha): 100
- Plant response rating, Bromegrass, Downy ([12]; 16 g ai/ha): 5
- Plant response rating, Bromegrass, Downy ([12]; 31 g ai/ha): 25
- Plant response rating, Bromegrass, Downy ([12]; 62 g ai/ha): 35
- Plant response rating, Bromegrass, Downy ([12]; 125 g ai/ha): 70
- Plant response rating, Oilseed Rape ([13]; 16 g ai/ha): 80
- Plant response rating, Oilseed Rape ([13]; 31 g ai/ha): 85
- Plant response rating, Oilseed Rape ([13]; 62 g ai/ha): 98
- Plant response rating, Oilseed Rape ([13]; 125 g ai/ha): 100
- Plant response rating, Mustard, Wild ([14]; 16 g ai/ha): 98
- Plant response rating, Mustard, Wild ([14]; 31 g ai/ha): 100
- Plant response rating, Mustard, Wild ([14]; 62 g ai/ha): 100
- Plant response rating, Mustard, Wild ([14]; 125 g ai/ha): 100
- Plant response rating, Barley, Winter ([15]; 16 g ai/ha): 0
- Plant response rating, Barley, Winter ([15]; 31 g ai/ha): 0
- Plant response rating, Barley, Winter ([15]; 62 g ai/ha): 30
- Plant response rating, Barley, Winter ([15]; 125 g ai/ha): 70
- Plant response rating, Ryegrass, Italian ([16]; 16 g ai/ha): 5
- Plant response rating, Ryegrass, Italian ([16]; 31 g ai/ha): 10
- Plant response rating, Ryegrass, Italian ([16]; 62 g ai/ha): 35
- Plant response rating, Ryegrass, Italian ([16]; 125 g ai/ha): 75
- Plant response rating, Speedwell ([17]; 16 g ai/ha): 100
- Plant response rating, Speedwell ([17]; 31 g ai/ha): 100
- Plant response rating, Speedwell ([17]; 62 g ai/ha): 100
- Plant response rating, Speedwell ([17]; 125 g ai/ha): 100
